Laboratory results taken from paper PMC12845078 (Pharmaceuticals, 2025).
Where two headings read alike, the source gives them in different places.

What was measured:
[1] = Plasma protein binding (rapid equilibrium dialysis), human; assay type: in vitro ADME; conditions: pH 7.4, human
Description: (§3) After incubation for 20 min, a portion of the whole blood was centrifuged at 2500× g for 10 min at 4 °C to separate plasma; another portion of the whole blood was subjected to three cycles of freeze–thawing and ultrasonicated for 10 min to disrupt cells. Equal volumes of plasma and whole blood samples were added to the whole blood and plasma specimens, respectively, followed by protein precipitation with acetonitrile containing an internal standard (IS). […] The RED inserts were placed in the matching incubation plate: 200 µL of drug-containing matrix were added to the sample chamber, and 400 µL of PBS buffer (pH: 7.4) were added to the buffer chamber. After incubation in a constant-temperature shaking incubator for 6 h (37 °C), samples from the sample chamber and buffer chamber were diluted 1:1 with PBS or matrix, respectively, and proteins were precipitated with acetonitrile containing IS.

[2] = Pharmacokinetics of MT and CBD in rats after pre-administration of ABT; conditions: p.o. MT + CBD (5 + 20) mg/kg
Description: Twelve SD rats were randomly divided into two groups. Both groups were first given an intragastric administration of 1-aminobenzotriazole (ABT) at a dose of 200 mg/kg. […] The administration volume for all groups was 5 mL/kg. […] Approximately 50 μL of venous blood were collected into heparin sodium anticoagulant tubes and placed on ice. The sample processing and storage methods were the same as described previously.
Subsequently, the resultant mixture was vortexed for 1 minute and centrifuged at 4 °C for 10 min at 18,800× g. […] The lowest limit of quantification (LLOQ) was established at 2 ng/mL.
Kromasil 100-5-C8 (2.1 × 50 mm) was selected for the separation of samples. The mobile phase consisted of solvent A (water with 0.1% formic acid and 5 mM ammonium acetate) and solvent B (methanol with 0.1% formic acid). […] The column temperature was set at 40 °C. The two eluents were 0.1% formic acid and 5 mM ammonium acetate in water (A) and 0.1% formic acid in methanol (B). […] The main mass spectrometry detection parameters were: dry gas 10 L/min, heated gas 10 L/min, collision gas 270 kPa, ion source temperature 300 °C, desolvation temperature 250 °C, and heating module temperature 400 °C.
Pharmacokinetic parameters: GraphPad Prism 10.1 software was utilized to draw the curves. Noncompartmental analysis was selected to calculate the major PK parameters, including clearance (CL), volume (V), half-life (t1/2), peak concentration (Cmax), and area under the curve (AUC), using WinNonlin 8.1.

[3] = system: CYP1A2-mediated metabolism of MT; assay: Static DDI model prediction of CBD's impact on MT exposure, rat; conditions: CBD dose 5 mg
Source text: (§1) (AUC when co-administered with the inhibitor) to AUC[contr] (AUC without the inhibitor).

PEPT1 = biological target: T1, PEPT1 (Homo sapiens, UniProt P46059); assay: Uptake and uptake inhibition in MDCK/hPEPT1 cell model; assay type: cell-based; conditions: MDCK
T1 construct: host or cells: MDCK
T1 sequence (P46059 1-708): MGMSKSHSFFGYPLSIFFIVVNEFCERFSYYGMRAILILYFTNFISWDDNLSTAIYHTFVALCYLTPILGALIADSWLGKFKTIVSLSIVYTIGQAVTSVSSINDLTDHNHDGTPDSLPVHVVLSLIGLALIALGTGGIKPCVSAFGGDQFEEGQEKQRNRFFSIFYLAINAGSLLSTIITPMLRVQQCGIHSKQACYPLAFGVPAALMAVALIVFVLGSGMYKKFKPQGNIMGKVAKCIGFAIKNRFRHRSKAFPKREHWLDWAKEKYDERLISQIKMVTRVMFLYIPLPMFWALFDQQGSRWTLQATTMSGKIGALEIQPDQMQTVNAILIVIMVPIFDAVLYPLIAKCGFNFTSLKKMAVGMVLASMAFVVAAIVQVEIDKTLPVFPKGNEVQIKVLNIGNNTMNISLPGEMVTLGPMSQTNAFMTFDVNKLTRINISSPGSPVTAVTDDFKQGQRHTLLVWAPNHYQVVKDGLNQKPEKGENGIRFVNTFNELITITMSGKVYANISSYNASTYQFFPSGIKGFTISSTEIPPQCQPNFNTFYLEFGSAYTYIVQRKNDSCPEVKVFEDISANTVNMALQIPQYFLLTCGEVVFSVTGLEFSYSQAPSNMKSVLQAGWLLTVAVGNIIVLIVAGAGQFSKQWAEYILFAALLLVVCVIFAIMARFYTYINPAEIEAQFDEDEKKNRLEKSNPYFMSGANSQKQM
Description: MDCK-PEPT1 cells were seeded into 24-well plates at a density of approximately 5 × 10^5 cells per well. When the cell confluency reached 60–70%, the culture medium was aspirated, and the cells were rinsed twice with HBSS pre-warmed to 37 °C. […] After incubation at 37 °C for 10 min, the buffer was aspirated, and ice-cold HBSS was immediately added to terminate the reaction, followed by rinsing three times. After drying the residual liquid, 200 μL of pure water were added to each well, and the cells were lysed by repeated freezing–thawing in liquid nitrogen three times. The cell lysates were collected, and the protein content was determined by the BCA method.
Cell uptake assessment: The concentration of the analyte in cells was corrected using the protein concentration of the cell lysate in each well.(4) Conclysate=Concdrug/ConcProtein
The uptake rate (U, pmol/mg/min) of the compound was calculated following Formula (5).(5) U=Clysate/P×t where Clysate is the amount of drug in the cell lysate (ng); P is cellular protein content (mg); t is incubation time (min).
The uptake ratio of the compound was calculated following Formula (6)(6) UR=U/ UMOCK where UMOCK is the uptake rate in MOCK-MDCK cells (pmol/mg/min).
The inhibition ratio was calculated following Formula (7)(7) IR=(1−Uwith inhibitor−Umock with inhibitor/Uwithout inhibitor−Umock without inhibitor)×100%

[4] = Plasma protein binding (rapid equilibrium dialysis), rat; assay type: in vitro ADME
Description: as §3

[5] = Plasma protein binding (rapid equilibrium dialysis), dog; conditions: beagle
Description: as §3

[6] = Plasma protein binding (rapid equilibrium dialysis), mouse; assay type: in vitro ADME; conditions: pH 7.4
Description: as §3

[7] = Liver microsome protein binding, human; assay type: in vitro ADME; conditions: liver microsomes, pH 7.4
Description: as §3

[8] = Pharmacokinetics of MT, 6-HMT and CBD in beagles after oral administration; conditions: beagle
Description: Twelve male healthy adult beagles (weighing 10 ± 2 kg) were randomly divided into two groups. […] The drugs were dissolved in a physiological saline solution containing 5% castor oil, with an administration volume of 2 mL/kg. Blood samples were collected at the time points of pre-administration and 0.083, 0.25, 0.5, 0.75, 1, 1.5, 2, 4, 6, 8, and 12 h post-administration.
(§2) The column temperature was set at 40 °C.

[9] = Brain tissue protein binding, rat; assay type: in vitro ADME; conditions: pH 7.4
Description: as §3

[10] = system: CYP1A2-mediated metabolism of MT; assay: Static DDI model prediction of CBD's impact on MT exposure, beagle; design: species or system beagle dog; conditions: CBD dose 30 mg
Source text: as §1

[11] = Liver microsome protein binding, rat; assay type: in vitro ADME; conditions: liver microsomes, pH 7.4
[12] = Liver microsome protein binding, dog; assay type: in vitro ADME; conditions: beagle, liver microsomes, pH 7.4
Description: as §3

[13] = Pharmacokinetics of MT, 6-HMT and CBD in SD rats (i.v. and oral); conditions: rat; for half-life / AUC(0-t) / AUC(0-inf) / Cmax / MRT last / Tmax: Sprague-Dawley; for half-life: in vivo, t1/2, rats; for AUC(0-t) / AUC(0-inf) / Cmax / MRT last / Tmax: plasma; for MRT last: MRT(0–t)
Description: The drugs were dissolved in the same manner as described previously, with an administration volume of 5 mL/kg for all groups. Blood samples were collected at the time points of pre-administration and 0.033 (only for the intravenous administration group), 0.083, 0.25, 0.5, 0.75, 1, 1.5, 2, 4, 6, 8, and 12 h post-administration.
as §2

[14] = po, 20 mg/kg, rats, p.o., MT + CBD (20 + 20) mg/kg
[15] = po, 20 mg/kg, rats, p.o., Vehicle + CBD 20 mg/kg
[16] = male, po, 20 mg/kg, rats, p.o., MT + CBD (5 + 20) mg/kg

In the case of `C=C(C)[C@@H]1CCC(C)=C[C@H]1c1c(O)cc(CCCCC)cc1O` [CBD, Cannabidiol], the fraction unbound at 6 h ([1]; read-out: Plasma Protein Binding (converted)) is reported as 0.001, the fraction unbound at 6 h ([1]; read-out: fu, p (free fraction in plasma)) is reported as 0.0001 and the “AUC(0–t) of CBD in ABT-model rats relative to control group” value [2] is reported as “approximately 1.68 fold”. The “[I]h (estimated free concentration in liver)” value [3] was 0.74 nM, the inhibition at 500 µM (PEPT1; 500 μM CBD, 100 μM MT, 4 °C, read-out: uptake inhibition rate of MT) was 2.7% and the inhibition at 500 µM (PEPT1; 500 μM CBD, 100 μM MT, 37 °C, read-out: uptake inhibition rate of MT) was 79.6%. For the same molecule, the inhibition at 500 µM (PEPT1; pH 6.3, 500 μM CBD, 100 μM Gly, pH 6.3, 37 °C, read-out: inhibition rate on the uptake of Gly via PEPT1) was 46.7%, the inhibition at 500 µM (PEPT1; pH 6.3, 500 μM CBD, 100 μM UBEN, pH 6.3, 37 °C, read-out: inhibition rate on the uptake of UBEN via PEPT1) was 55.8% and the “fu, p (free fraction in plasma)” value [4] was 0.25%. The fraction unbound at 6 h ([4]; plasma, pH 7.4) was 0.0025, the “fu, p (free fraction in plasma)” value [5] was 0.33% and the fraction unbound at 6 h ([5]; dog, plasma, pH 7.4) was 0.0033. For the same molecule, the fraction unbound at 6 h [6] was 0.0029, the fraction unbound at 6 h [7] was 0.0073 and the “Ka (oral absorption rate)” value ([8]; calculated as 0.693/(tmax/5)) was 3.77. For the same molecule, the Cmax ([8]; male, dog, plasma, oral) was 1310 nM, the fraction unbound at 6 h [9] was 0.0006 and the “[I]h (estimated free concentration in liver)” value [10] was 1.37 nM. The fraction unbound at 6 h [11] was 0.0055, the fraction unbound at 6 h [12] was 0.0018 and the half-life ([13]; po, 20 mg/kg, p.o., MT + CBD (20 + 20) mg/kg) was 2.67 h. The half-life ([13]; po, 20 mg/kg, p.o., Vehicle + CBD 20 mg/kg) was 3.55 h, the AUC(0-t) [13, 14] was 1390 ng·h/mL and the AUC(0-t) [13, 15] was 1570 ng·h/mL. For the same molecule, the AUC(0-inf) [13, 14] was 1410 ng·h/mL, the AUC(0-inf) [13, 15] was 1590 ng·h/mL and the Cmax [13, 14] was 519 ng/mL. It also gave a Cmax [13, 15] of 704 ng/mL, an MRT last [13, 14] of 2.71 h and an MRT last [13, 15] of 3.11 h. It also gave a Tmax [13, 14] of 1.21 h, a Tmax [13, 15] of 0.92 h and a half-life ([13]; male, po, 20 mg/kg, p.o., MT + CBD (5 + 20) mg/kg) of 4.14 h. The Cmax ([13]; male, oral, parameter of CBD for static DDI model) was 1620 nM, the AUC(0-t) [13, 16] was 1590 ng·h/mL and the AUC(0-inf) [13, 16] was 1610 ng·h/mL. It also gave a Cmax [13, 16] of 510 ng/mL, an MRT last [13, 16] of 3.85 h and a Tmax [13, 16] of 1.5 h. The “Ka (oral absorption rate)” value ([13]; calculated as 0.693/(tmax/5)) was 2.31.
